Legend:
Type in all cases: in vivo, rat
[1] = tested on: BrdU immunoreactive cells in dentate gyrus, SVZ and OB; experiment: Cell proliferation (BrdU) in non-ischemic young adult rats
Description: The effects of an NO donor administered to normal young adult rats on the induction of cell proliferation within three regions of brain, the dentate gyrus, the olfactory bulb (OB) and the subventricular zone (SVZ) were tested. […] Young male Wister rats (3-4 month old) received 4 consecutive). I.V bolus doses of DETA/NONOate (0.1 mg/kg each, every 15 min, and total dose of 0.4 mg/kg) on the first experimental day and DETA/NONOate (0.4 mg/kg) was administered (i.p) daily for an additional 6 consecutive days. Rats that received saline were used as a control group. Bromodeoxyuridine (BrdU) was used as mitotic labeling to measure cell proliferation. Animals received daily i.p injections of BrdU (50 mg/kg, Sigma) on the first experimental day and subsequently for 14 consecutive days. Rats were sacrificed at 14 and 42 days after the treatment. BrdU immunoreactive nuclei were counted on a computer monitor to improve visualization and in one focal plane to avoid over-sampling. Structures were sampled either by selecting predetermined areas on each section (OB) or by analyzing entire structures on each section (SVZ and dentate gyrus) (Zhang et al., 2001). All BrdU immunoreactive-positive nuclei in these areas are presented as the number of the BrdU immunoreactive cells/mm^2. Density for the selected several sections was averaged to obtain a mean density value for each animal (Zhang et al., 2001).

[2] = tested on: BrdU-immunoreactive cells in the subventricular zone and dentate gyrus; experiment: BrdU cell proliferation in subventricular zone and dentate gyrus after embolic MCA occlusion; details: 28 days
Description: Male Wistar rats weighing 320 to 380 g were used in the present study. The middle cerebral artery (MCA) was occluded by placement of an embolus at the origin of the MCA. […] Ischemic rats (n=9) were treated with the same volume of tap water as a control group. Functional tests were performed and body weight was measured before ischemia and at 4, 7, 14, 21, and 28 days after onset of MCA occlusion. All rats were killed 28 days after MCA occlusion. […] These rats were killed 1 hour after the last treatment for measurements of brain levels of cGMP. […] Reverse transcription (RT)-polymerase chain reaction (PCR) was performed to detect PDE5 in brain tissue. Bromodeoxyuridine (BrdU) was used to measure cell proliferation. Animals received daily intraperitoneal injections of BrdU (50 mg/kg; Sigma) on the day of stroke and subsequently for 14 consecutive days. Cell proliferation in the subventricular zone and dentate gyrus was measured in rats killed at 28 days (in experimental protocol 1, all 4 groups) after ischemia. […] Sections were incubated with a primary antibody to BrdU (1:100) at room temperature for 1 hour and then incubated with biotinylated secondary antibody (1:200, Vector) for 1 hour. Reaction product was detected with the use of 3′3′-diaminobenzidine-tetrahydrochloride (DAB; Sigma), For ′III-tubulin (TuJ1) immunostaining, which identifies immature neurons, 12 coronal sections were incubated with the antibody against TuJ1 (1:1000) at 4° C. overnight and were then incubated with a biotinylated horse anti-mouse immunoglobulin antibody at room temperature for 30 minutes. Double immunofluorescent staining for BrdU and TuJ1 as performed to determine whether BrdU-immunoreactive cells express neuronal phenotype on the coronal sections. Measurements of BrdU-immunoreactive cells were performed on paraffin-embedded 6-μm-thick sections. 11 BrdU-immunostained sections were digitized with the use of a 40 objective (Olympus BX40) via the MCID computer imaging analysis system (Imaging Research). BrdU-immunoreactive nuclei were counted on a computer monitor to improve visualization and in 1 focal plane to avoid oversampling. All BrdU-immunoreactive-positive nuclei were counted in both the ipsilateral and contralateral walls of the lateral ventricle of the subventricular zone and in the dentate gyrus. […] For the dentate gyrus, every 50th coronal section was selected from each rat for a total of 8 sections between anteroposterior 5.86 mm and anteroposterior 2.96 mm of the granule cell layer. BrdU-immunoreactive nuclei in the subventricular zone and in the dentate gyrus are presented as the number of the cells per square millimeter (mean SE). […] Numbers of TuJ1-immunoreactive cells were counted in the subventricular one and striatum, and data are presented as the number of TuJ1-immunoreactive cells per section (mean SE).

nonischemic rats = experiment: Localized CBF by laser-Doppler flowmetry; details: sildenafil 2 mg/kg
Description: Ischemic rats (n=9) were treated with the same volume of tap water as a control group. Functional tests were performed and body weight was measured before ischemia and at 4, 7, 14, 21, and 28 days after onset of MCA occlusion. All rats were killed 28 days after MCA occlusion. […] These rats were killed 1 hour after the last treatment for measurements of brain levels of cGMP. […] Reverse transcription (RT)-polymerase chain reaction (PCR) was performed to detect PDE5 in brain tissue. Relative erythrocyte flow velocity was measured by laser-Doppler flowmetry (PeriFlux PF4 flowmeter; Perimed AB) in the tissue under the laser-Doppler flowmetry probe. 13 A burr hole 1.5 mm in diameter was drawn on the skull 2 mm posterior to the bregma and 6 mm lateral to midline. 13 The dura was left intact. After the application of mineral oil onto the burr hole, the probe was laced 0.5 mm above the dural surface. […] This measurement reflects relatively localized CBF. 14 Values of flow velocities are presented as a percentage of the contralateral hemispheric values.

[3] = Sildenafil 2 mg/kg from 2 h after MCA occlusion
[4] = Sildenafil 2 mg/kg from 24 h after MCA occlusion
[5] = Sildenafil 5 mg/kg from 2 h after MCA occlusion

Compound | numbers of BrdU reactive cells within the dentate gyrus, SVZ and OB ([1]; non-ischemic young adult rats (3-4 month old), DETA/NONOate 0.4 mg/kg daily 7 days, 14 and 42 days, vs saline) | newly generated cells within the dentate gyrus exhibiting neuronal markers NeuN and MAP2 ([1]; non-ischemic young adult rats administered DETA/NONO-ate) | Density of newborn cells, Dentate Gyrus Contralateral [2, 3] [cells per mm^2] | Density of newborn cells, Dentate Gyrus Ipsilateral [2, 3] [cells per mm^2] | Density of newborn cells, Subventricular Zone Contralateral [2, 3] [cells per mm^2] | Density of newborn cells, Dentate Gyrus Contralateral [2, 4] [cells per mm^2] | Density of newborn cells, Dentate Gyrus Ipsilateral [2, 4] [cells per mm^2] | Density of newborn cells, Subventricular Zone Contralateral [2, 4] [cells per mm^2] | Density of newborn cells, Subventricular Zone Ipsilateral [2, 4] [cells per mm^2] | Density of newborn cells, Subventricular Zone Ipsilateral ([2]; Sildenafil 2 mg/kg oral daily 7 days from 2 h after MCA occlusion) [cells per mm^2] | Density of newborn cells, Dentate Gyrus Contralateral [2, 5] [cells per mm^2] | Density of newborn cells, Dentate Gyrus Ipsilateral [2, 5] [cells per mm^2] | Density of newborn cells, Subventricular Zone Contralateral [2, 5] [cells per mm^2] | Density of newborn cells, Subventricular Zone Ipsilateral [2, 5] [cells per mm^2] | duration of significantly increased localized CBF after administration (nonischemic rats) [min] | localized CBF levels (nonischemic rats; vs control rats)
NCCN(CCN)/[N+]([O-])=N/O [DETANONOate, (Z)-1-[N-(2-aminoethyl)-N-(2-ammonioethyl)aminio]diazen-1-ium-1,2-diolate] | Statistically significant increased | More than 95% |  |  |  |  |  |  |  |  |  |  |  |  |  | 
CCCc1nn(C)c2c(=O)[nH]c(-c3cc(S(=O)(=O)N4CCN(C)CC4)ccc3OCC)nc12 [Sildenafil] |  |  | 55 ± 2.10 | 55 ± 3.99 | 296 ± 19.74 | 56 ± 4.76 | 57 ± 4.21 | 295 ± 24.54 | 374 ± 16.07 | 383 ± 23.44 | 58 ± 5.38 | 59 ± 5.26 | 312 ± 23.79 | 437 ± 32.97 | 70 | significantly increased localized CBF levels

Reference: patent publication US20120009152A1, “NITRIC OXIDE DONORS FOR TREATMENT OF DISEASE AND INJURY” (priority 2002, published 2012)
